Structures can show the parent of a compound that is named as a salt. Values belong to the compound of their own block, whether it stands above or below them.
Columns and labels:
[1] = tested on: MK-801-induced hyperactivity in mice; test: Attenuation of MK-801 (dizocilpine)-induced hyperactivity in mice; format: in vivo; settings: for MED (mg/kg) p.o.: mice treated with MK801, oral administration; for dose giving statistically significant decrease of MK-801-induced hyperactivity compared to vehicle control: 0.3 mg/kg dizocilpine i.p.
Method: Male Non-Swiss Albino mice (Harlan Sprague-Dawley) were housed (4 mice/cage) in rooms with temperature and humidity controlled and water and food (Harlan Teklad) freely available. Mice were kept on a 12-hr light:dark cycle. For locomotor experiments, plastic 20×20×30 cm activity cages were equipped with photocell beams (AccuScan Instruments).
(§1) For hyperactivity experiments, mice were treated with 0.3 mg/kg dizocilpine i.p. 15 min before the session. Mice were treated with 69NLS75 s.c. 10 min before the session or p.o. 30 min before the session and placed into the activity cages. For spontaneous activity, 69NLS75 was administered alone. Locomotor data were collected during a 15 min session without habituation in a lit room. Each dose combination was tested in a separate group of animals (n=8). Distance traveled (cm) was calculated and averaged followed by ANOVA and post-hoc Dunnett's t-test comparisons.
The effect of various compounds on locomotor activity in mice treated with MK801 was observed as described above.
Animals received 0.1-30 mg/kg of the compound indicated via subcutaneous injection or oral administration. MED indicates the minimum effective dose at which a statistically significant reduction of locomotor activity (described above) was observed. MED=minimum effective dose in vivo.

[2] = target: T1, 5-HT2A receptor (Homo sapiens, UniProt P28223); test: R-SAT functional receptor assay at the 5-HT2A receptor; format: cell-based; settings: for IC50: R-SAT, NIH3T3 cells, inverse agonism (repression of basal response), read-out: 5HT2A pIC50 (converted)
T1 construct: expressed in transfected cells; host or cells: NIH3T3 cells, pSI mammalian expression vector
Source text: The EC50 for an agonist is intended to denote the concentration of a compound needed to achieve 50% of a maximal response seen in R-SAT. For inverse agonists, EC50 is intended to denote the concentration of a compound needed to achieve 50% inhibition of an R-SAT response from basal, no compound, levels.
(§2) The functional receptor assay, Receptor Selection and Amplification Technology (R-SAT), was used (with minor modifications from that previously described U.S. Pat. No. 5,707,798) to screen compounds for efficacy at the 5-HT2A receptor. Briefly, NIH3T3 cells were grown in 96 well tissue culture plates to 70-80% confluence. Cells were transfected for 12-16 hours with plasmid DNAs using superfect (Qiagen Inc.) as per manufacture's protocols. R-SAT's were generally performed with 50 ng/well of receptor and 20 ng/well of Beta-galactosidase plasmid DNA-All receptor and G-protein constructs used were in the pSI mammalian expression vector (Promega Inc) as described in U.S. Pat. No. 5,707,798. The 5HT2A receptor gene was amplified by nested PCR from brain cDNA using the oligodeoxynucleotides based on the published sequence (see Saltzman et. al. Biochem. Biophys. Res. Comm. 181:1469-78 (1991)). Large-scale transfections, cells were transfected for 12-16 hours, then trypsinized and frozen in DMSO. Frozen cells were later thawed, plated at 10,000-40,000 cells per well of a 96 well plate that contained drug. With both methods, cells were then grown in a humidified atmosphere with 5% ambient CO2 for five days. Media was then removed from the plates and marker gene activity was measured by the addition of the beta-galactosidase substrate ONPG (in PBS with 5% NP-40). The resulting […] reaction was measured in a spectrophotometric plate reader (Titertek Inc.) at […]. All data were analyzed using the computer program XLFit (IDBSm). Efficacy is the percent maximal repression compared to repression by a control compound (ritanserin in the case of 5HT2A). pIC50 is the negative of the log(IC50), where IC50 is the calculated concentration in Molar that produces 50% maximal repression.
The R-SAT assay (described above in example) was used to investigate the selectivity of 4-(4-Fluoro-benzyl)-3-(4-isobutoxy-benzyl)-8-methyl-1-oxa-3,8-diaza-spiro[4.5]decan-2-one.

[3] = target: T2, m3 (Homo sapiens, UniProt P20309); test: R-SAT selectivity profiling, m3; format: cell-based; settings: m3, antagonist assay; read-out: pEC50 or pIC50 (converted)
T2 construct: expressed in transfected cells; host or cells: NIH3T3 cells, pSI vector
Method: as §2, with “Frozen cells were later thawed, plated at 10,000-40,000 cells per well of a 96 well plate that contained drug. With both methods, cells were then grown in a humidified atmosphere with 5% ambient CO2 for five days.” left out, “Efficacy is the percent maximal repression compared to repression by a control compound (ritanserin in the case of 5HT2A). pIC50 is the negative of the log(IC50), where IC50 is the calculated concentration in Molar that produces 50% maximal repression.” left out

[4] = target: T3, H1 (Homo sapiens, UniProt P35367); test: R-SAT selectivity profiling, H1; format: cell-based; settings: H1, antagonist assay; read-out: pEC50 or pIC50 (converted)
T3 construct: expressed in transfected cells; host or cells: NIH3T3 cells, pSI vector
Method: as §2, with “Frozen cells were later thawed, plated at 10,000-40,000 cells per well of a 96 well plate that contained drug. With both methods, cells were then grown in a humidified atmosphere with 5% ambient CO2 for five days.” left out, “Efficacy is the percent maximal repression compared to repression by a control compound (ritanserin in the case of 5HT2A). pIC50 is the negative of the log(IC50), where IC50 is the calculated concentration in Molar that produces 50% maximal repression.” left out

[5] = tested on: spontaneous locomotor activity; test: Spontaneous locomotor activity in mice; format: in vivo; settings: at doses that attenuate MK-801 hyperactivity; compound administered alone
Method: as §1, with “Male Non-Swiss Albino mice (Harlan Sprague-Dawley) were housed (4 mice/cage) in rooms with temperature and humidity controlled and water and food (Harlan Teklad) freely available. Mice were kept on a 12-hr light:dark cycle. For locomotor experiments, plastic 20×20×30 cm activity cages were equipped with photocell beams (AccuScan Instruments). For hyperactivity” for “For hyperactivity”

[6] = target: T4, 5HT1A (Homo sapiens, UniProt P08908); test: R-SAT selectivity profiling, 5HT1A; format: cell-based; settings: antagonist assay, read-out: pEC50 or pIC50 (converted)
T4 construct: expressed in transfected cells; host or cells: NIH3T3 cells, pSI vector
T4 sequence (P08908 1-422): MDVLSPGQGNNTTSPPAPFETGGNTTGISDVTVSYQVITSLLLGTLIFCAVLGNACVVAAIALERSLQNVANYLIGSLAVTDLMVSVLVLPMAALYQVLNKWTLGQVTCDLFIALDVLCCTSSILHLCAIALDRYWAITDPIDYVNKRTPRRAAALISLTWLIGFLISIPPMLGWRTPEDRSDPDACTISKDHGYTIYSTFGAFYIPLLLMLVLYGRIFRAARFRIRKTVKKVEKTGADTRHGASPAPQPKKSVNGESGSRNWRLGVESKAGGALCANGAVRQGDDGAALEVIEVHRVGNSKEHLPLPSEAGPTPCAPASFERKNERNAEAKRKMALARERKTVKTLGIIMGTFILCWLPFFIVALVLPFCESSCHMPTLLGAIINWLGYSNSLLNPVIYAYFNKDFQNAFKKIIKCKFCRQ
Method: as §2, with “Frozen cells were later thawed, plated at 10,000-40,000 cells per well of a 96 well plate that contained drug. With both methods, cells were then grown in a humidified atmosphere with 5% ambient CO2 for five days.” left out, “Efficacy is the percent maximal repression compared to repression by a control compound (ritanserin in the case of 5HT2A). pIC50 is the negative of the log(IC50), where IC50 is the calculated concentration in Molar that produces 50% maximal repression.” left out

[7] = target: T5, alpha 2A (Homo sapiens, UniProt P08913); test: R-SAT selectivity profiling, alpha 2A; format: cell-based; settings: antagonist assay, read-out: pEC50 or pIC50 (converted)
T5 construct: expressed in transfected cells; host or cells: NIH3T3 cells, pSI vector
T5 sequence (P08913 1-465): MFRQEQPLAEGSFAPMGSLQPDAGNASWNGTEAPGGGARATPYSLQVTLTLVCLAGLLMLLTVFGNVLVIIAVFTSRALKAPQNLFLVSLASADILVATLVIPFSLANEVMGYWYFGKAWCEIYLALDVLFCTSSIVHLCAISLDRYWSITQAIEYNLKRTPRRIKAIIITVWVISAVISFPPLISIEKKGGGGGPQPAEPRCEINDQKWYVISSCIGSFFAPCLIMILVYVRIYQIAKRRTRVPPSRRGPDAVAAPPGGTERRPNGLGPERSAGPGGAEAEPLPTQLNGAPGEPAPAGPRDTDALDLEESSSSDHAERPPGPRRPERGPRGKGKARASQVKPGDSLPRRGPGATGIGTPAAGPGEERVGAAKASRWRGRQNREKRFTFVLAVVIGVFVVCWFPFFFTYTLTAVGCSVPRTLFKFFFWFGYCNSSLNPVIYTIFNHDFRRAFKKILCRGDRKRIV
Method: as §2, with “Frozen cells were later thawed, plated at 10,000-40,000 cells per well of a 96 well plate that contained drug. With both methods, cells were then grown in a humidified atmosphere with 5% ambient CO2 for five days.” left out, “Efficacy is the percent maximal repression compared to repression by a control compound (ritanserin in the case of 5HT2A). pIC50 is the negative of the log(IC50), where IC50 is the calculated concentration in Molar that produces 50% maximal repression.” left out

[8] = target: T6, 5HT 2C (Homo sapiens, UniProt P28335); test: R-SAT selectivity profiling, 5HT 2C; format: cell-based
T6 construct: expressed in transfected cells; host or cells: NIH3T3 cells, pSI vector
T6 sequence (P28335 33-458): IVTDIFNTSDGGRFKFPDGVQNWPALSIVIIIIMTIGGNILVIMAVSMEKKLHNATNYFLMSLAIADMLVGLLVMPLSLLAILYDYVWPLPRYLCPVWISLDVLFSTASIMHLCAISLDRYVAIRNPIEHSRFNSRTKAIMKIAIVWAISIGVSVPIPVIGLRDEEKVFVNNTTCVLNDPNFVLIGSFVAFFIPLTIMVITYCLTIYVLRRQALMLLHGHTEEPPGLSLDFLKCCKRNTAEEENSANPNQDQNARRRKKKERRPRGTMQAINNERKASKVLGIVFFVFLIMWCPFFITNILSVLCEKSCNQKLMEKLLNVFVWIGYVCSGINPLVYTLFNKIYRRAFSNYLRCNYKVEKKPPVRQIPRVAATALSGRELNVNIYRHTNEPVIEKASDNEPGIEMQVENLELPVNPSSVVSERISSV
Method: as §2, with “Frozen cells were later thawed, plated at 10,000-40,000 cells per well of a 96 well plate that contained drug. With both methods, cells were then grown in a humidified atmosphere with 5% ambient CO2 for five days.” left out, “Efficacy is the percent maximal repression compared to repression by a control compound (ritanserin in the case of 5HT2A). pIC50 is the negative of the log(IC50), where IC50 is the calculated concentration in Molar that produces 50% maximal repression.” left out

[9] = minimum effective dose for statistically significant reduction of locomotor activity
[10] = efficacy: percent maximal repression compared to ritanserin

T1 sequence (P28223 whole entry): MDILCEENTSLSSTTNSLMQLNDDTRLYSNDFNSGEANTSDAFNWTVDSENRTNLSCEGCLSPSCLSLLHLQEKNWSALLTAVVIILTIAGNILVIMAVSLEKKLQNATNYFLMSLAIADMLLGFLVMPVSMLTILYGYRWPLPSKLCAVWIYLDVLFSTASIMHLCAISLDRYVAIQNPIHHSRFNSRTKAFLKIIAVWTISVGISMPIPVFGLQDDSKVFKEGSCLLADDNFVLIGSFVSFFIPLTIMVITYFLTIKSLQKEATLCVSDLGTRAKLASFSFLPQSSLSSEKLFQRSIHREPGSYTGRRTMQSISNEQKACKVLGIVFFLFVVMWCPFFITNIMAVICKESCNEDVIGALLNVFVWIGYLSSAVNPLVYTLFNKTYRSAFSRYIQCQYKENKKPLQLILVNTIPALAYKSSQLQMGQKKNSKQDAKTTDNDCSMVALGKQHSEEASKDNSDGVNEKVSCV
T3 sequence (P35367 whole entry): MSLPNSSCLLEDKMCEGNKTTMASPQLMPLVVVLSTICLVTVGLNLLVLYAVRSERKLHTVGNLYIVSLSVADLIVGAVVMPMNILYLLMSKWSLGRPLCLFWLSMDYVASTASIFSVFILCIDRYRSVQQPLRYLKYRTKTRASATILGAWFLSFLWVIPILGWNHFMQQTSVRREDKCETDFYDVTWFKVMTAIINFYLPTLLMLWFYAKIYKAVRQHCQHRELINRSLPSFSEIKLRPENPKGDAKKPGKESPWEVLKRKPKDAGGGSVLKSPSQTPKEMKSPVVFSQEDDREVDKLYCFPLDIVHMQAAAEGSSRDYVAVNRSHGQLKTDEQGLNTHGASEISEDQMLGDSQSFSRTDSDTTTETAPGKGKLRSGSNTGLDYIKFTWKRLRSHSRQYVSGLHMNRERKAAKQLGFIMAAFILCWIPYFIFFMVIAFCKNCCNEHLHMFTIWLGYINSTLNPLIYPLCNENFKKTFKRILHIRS
T2 sequence (P20309 whole entry): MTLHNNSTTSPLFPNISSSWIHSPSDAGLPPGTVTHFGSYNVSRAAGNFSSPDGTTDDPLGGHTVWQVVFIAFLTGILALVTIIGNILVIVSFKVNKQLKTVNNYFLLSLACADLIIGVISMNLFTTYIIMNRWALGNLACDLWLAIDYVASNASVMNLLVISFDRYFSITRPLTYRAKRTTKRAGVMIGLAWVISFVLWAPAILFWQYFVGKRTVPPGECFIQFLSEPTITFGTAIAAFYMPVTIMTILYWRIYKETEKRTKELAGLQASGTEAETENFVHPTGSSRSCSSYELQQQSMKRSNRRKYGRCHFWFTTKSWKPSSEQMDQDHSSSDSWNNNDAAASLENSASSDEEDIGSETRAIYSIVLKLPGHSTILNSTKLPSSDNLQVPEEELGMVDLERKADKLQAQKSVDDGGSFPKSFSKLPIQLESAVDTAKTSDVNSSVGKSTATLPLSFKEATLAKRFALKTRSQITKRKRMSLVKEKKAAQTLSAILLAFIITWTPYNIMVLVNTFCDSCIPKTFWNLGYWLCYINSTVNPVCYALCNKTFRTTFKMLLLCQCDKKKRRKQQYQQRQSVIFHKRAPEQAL

Structure (SMILES): CC(C)COc1ccc(CN2C(=O)OC3(CCN(CCC4OCCO4)CC3)C2Cc2ccc(F)cc2)cc1.Cl (centres unmarked) [Compound 69NLS79-II, 8-(2-[1,3]Dioxolan-2-yl-ethyl)-4-(4-fluorobenzyl)-3-(4-isobutoxybenzyl)-1-oxa-3,8-diaza-spiro[4.5]decan-2-one, hydrochloride]
- MED (mg/kg) p.o. [1, 9]: 3 mg/kg

Structure (SMILES): CC(C)COc1ccc(CN2C(=O)OC3(CCN(C)CC3)[C@H]2Cc2ccc(F)cc2)cc1.Cl (single isomer, unassigned) [Compound 78NLS62]
- 5HT2A % inhibition [2, 10]: 89%

- enantiomer preference at the 5-HT2A receptor in vitro ([2]; (S)- versus (R)-enantiomer, Table 1): eutomer
- IC50 [2]: 0.251 nM
- 5HT2A % inhibition [2, 10]: 98%
Structure (SMILES): CC(C)COc1ccc(CN2C(=O)OC3(CCN(C)CC3)[C@@H]2Cc2ccc(F)cc2)cc1 (single isomer, unassigned) [Compound 78NLS59, hydrochloride]

Structure (SMILES): CN1CCC2(CC1)OC(=O)N(Cc1ccc(OCC3CC3)cc1)C2Cc1ccc(F)cc1.Cl (centres unmarked) [Compound 69NLS52, 3-(4-Cyclopropylmethoxybenzyl)-4-(4-fluorobenzyl)-8-methyl-1-oxa-3,8-diaza-spiro[4.5]decan-2-one, hydrochloride]
- MED (mg/kg) p.o. [1, 9]: 10 mg/kg

Structure (SMILES): CC(C)COc1ccc(CN2C(=O)OC3(CCN(C)CC3)[C@H]2Cc2ccc(F)cc2)cc1.Cl (single isomer, unassigned) [Compound 78NLS62, hydrochloride]
- IC50 [2]: 6.31 nM

Structure (SMILES): CC(C)COc1ccc(CN2C(=O)OC3(CCN(C)CC3)C2Cc2ccc(F)cc2)cc1.Cl (racemic) [Compound 69NLS75, 4-(4-Fluorobenzyl)-3-(4-isobutoxybenzyl)-8-methyl-1-oxa-3,8-diaza-spiro[4.5]decan-2-one, hydrochloride]
- IC50 [3]: 398 nM
- efficacy in brackets (%) ([2]; 5HT2A, inverse agonist assay): 94%
- pEC50 or pIC50 ([2]; 5HT2A, inverse agonist assay): 9.5
- IC50 [2]: 0.316 nM
- Emax ([2]; efficacy: percent maximal repression compared to ritanserin, read-out: 5HT2A % inhibition): 94%
- effect on MK-801-induced hyperactivity in mice ([1]; distance traveled, 15 min session): dose-related decrease
- MED (mg/kg) p.o. [1, 9]: 3 mg/kg
- MED (mg/kg) s.c. ([1]; minimum effective dose for statistically significant reduction of locomotor activity, mice treated with MK801, subcutaneous injection): 3 mg/kg
- dose giving statistically significant decrease of MK-801-induced hyperactivity compared to vehicle control ([1]; p.o. 30 min before session): 3 mg/kg
- dose giving statistically significant decrease of MK-801-induced hyperactivity compared to vehicle control ([1]; s.c. 10 min before session): 3 mg/kg
- IC50 [4]: 200 nM
- effect on spontaneous locomotor activity [5]: no effect
- IC50 [6]: 398 nM
- IC50 [7]: 501 nM
- efficacy in brackets (%) [8]: 77%
- IC50 ([8]; 5HT 2C, inverse agonist assay, read-out: pEC50 or pIC50 (converted)): 31.6 nM
